Experimental data: US20110230481A2, “DERIVATIVES OF TETRABROMOBENZIMIDAZOLE, A PROCESS FOR THE PREPARATION THEREOF, A PHARMACEUTICAL COMPOSITION COMPRISING THE SAME, A METHOD OF USING THE SAME, A METHOD FOR MODULATING OR REGULATING SERINE/THREONINE KINASES, AND SERINE/THREONINE KINASES MODULATING AGENT” (SELVITA S.A., priority 2009, published 2011)

Experiments:
Test in all cases: KINOMEscan Max
Type in all cases: binding
[1] = molecular target: T1, PIK3CA(E545A) (Homo sapiens, UniProt P42336, E545A)
T1 construct: purchased Ambit Kinomescan (contract screening)
In short: (§1)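 Immobilized active-site directed ligand captures DNA-tagged kinase unless test compound competes it off; captured kinase is then quantified by qPCR of the DNA tag.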

[2] = molecular target: T2, KIT(V559D) (Homo sapiens, UniProt P10721, V559D)
T2 construct: purchased Ambit Kinomescan (contract screening)
In short: as §1

[3] = molecular target: T3, CDKL1 (Homo sapiens, UniProt Q00532)
T3 construct: DNA tag (qPCR label); purchased Ambit Kinomescan (contract screening)
In short: as §1

[4] = molecular target: T4, FGFR3 (Homo sapiens, UniProt P22607)
T4 construct: purchased Ambit (KINOMEscan Max service)
In short: as §1

[5] = molecular target: T5, ERK2 (Homo sapiens, UniProt P28482)
T5 construct: purchased Ambit Kinomescan (contract panel, KINOMEscan Max)
In short: as §1

[6] = molecular target: T6, FLT3(D835H) (Homo sapiens, UniProt P36888, D835H)
T6 construct: purchased Ambit (KINOMEscan Max service)
In short: as §1

[7] = molecular target: T7, YANK1 (Homo sapiens, UniProt Q8WU08)
T7 construct: purchased Ambit Kinomescan (contract screening service)
In short: as §1

[8] = molecular target: T8, MYLK4 (Homo sapiens, UniProt Q86YV6)
T8 construct: DNA tag (qPCR read-out); purchased Ambit Kinomescan
In short: as §1

[9] = molecular target: T9, EPHA8 (Homo sapiens, UniProt P29322)
T9 construct: purchased Ambit (KINOMEscan Max service)
In short: as §1

[10] = molecular target: T10, PLK3 (Homo sapiens, UniProt Q9H4B4)
T10 construct: purchased Ambit (KINOMEscan Max service)
In short: as §1

[11] = molecular target: T11, TLK1 (Homo sapiens, UniProt Q9UKI8)
T11 construct: DNA tag (qPCR read-out)
In short: as §1

[12] = molecular target: T12, FLT1 (Homo sapiens, UniProt P17948)
T12 construct: purchased Ambit Kinomescan (contract panel, KINOMEscan Max)
T12 sequence (P17948 27-1338): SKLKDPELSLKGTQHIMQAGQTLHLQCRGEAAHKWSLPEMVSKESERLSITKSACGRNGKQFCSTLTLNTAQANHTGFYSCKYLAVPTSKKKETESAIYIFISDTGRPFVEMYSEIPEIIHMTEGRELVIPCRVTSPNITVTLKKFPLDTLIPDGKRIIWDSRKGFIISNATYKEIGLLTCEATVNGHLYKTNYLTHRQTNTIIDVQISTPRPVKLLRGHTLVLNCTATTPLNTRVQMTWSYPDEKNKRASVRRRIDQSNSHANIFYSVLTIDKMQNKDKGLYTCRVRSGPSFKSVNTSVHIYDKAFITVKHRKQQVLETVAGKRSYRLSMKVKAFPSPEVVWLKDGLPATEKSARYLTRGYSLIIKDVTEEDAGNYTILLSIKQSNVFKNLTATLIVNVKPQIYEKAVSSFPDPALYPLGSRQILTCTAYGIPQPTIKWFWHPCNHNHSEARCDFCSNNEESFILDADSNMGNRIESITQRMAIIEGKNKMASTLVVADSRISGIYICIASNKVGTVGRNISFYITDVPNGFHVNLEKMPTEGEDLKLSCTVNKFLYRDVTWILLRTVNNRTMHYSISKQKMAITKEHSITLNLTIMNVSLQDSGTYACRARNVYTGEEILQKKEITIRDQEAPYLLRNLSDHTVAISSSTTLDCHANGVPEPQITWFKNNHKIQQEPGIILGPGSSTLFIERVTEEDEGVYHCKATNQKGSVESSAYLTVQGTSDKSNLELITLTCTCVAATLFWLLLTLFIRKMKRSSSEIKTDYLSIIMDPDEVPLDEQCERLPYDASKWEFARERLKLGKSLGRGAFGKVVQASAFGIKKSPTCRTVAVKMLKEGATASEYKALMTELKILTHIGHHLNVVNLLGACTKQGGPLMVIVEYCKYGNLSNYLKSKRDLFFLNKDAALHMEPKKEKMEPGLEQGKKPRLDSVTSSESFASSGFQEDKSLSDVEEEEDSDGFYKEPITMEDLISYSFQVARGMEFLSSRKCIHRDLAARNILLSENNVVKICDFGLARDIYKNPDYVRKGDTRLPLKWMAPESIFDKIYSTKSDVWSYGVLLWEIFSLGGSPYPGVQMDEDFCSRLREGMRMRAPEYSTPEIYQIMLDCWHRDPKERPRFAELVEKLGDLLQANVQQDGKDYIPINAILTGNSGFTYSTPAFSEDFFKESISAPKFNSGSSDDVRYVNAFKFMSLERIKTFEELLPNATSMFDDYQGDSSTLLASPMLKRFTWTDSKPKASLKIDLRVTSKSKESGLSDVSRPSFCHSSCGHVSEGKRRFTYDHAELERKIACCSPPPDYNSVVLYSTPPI
In short: as §1

[13] = molecular target: T13, LRRK2(G2019S) (Homo sapiens, UniProt Q5S007, G2019S)
T13 construct: purchased Ambit (KINOMEscan Max service)
In short: as §1

[14] = molecular target: T14, CDK5 (Homo sapiens, UniProt Q00535)
T14 construct: DNA tag (qPCR label); purchased Ambit Kinomescan (contract screening)
In short: as §1

[15] = molecular target: T15, TGFBR2 (Homo sapiens, UniProt P37173)
T15 construct: purchased Ambit Kinomescan (contract screening service)
In short: as §1

[16] = molecular target: T16, EPHA6 (Homo sapiens, UniProt Q9UF33)
T16 construct: purchased Ambit (KINOMEscan Max panel service)
In short: as §1

[17] = molecular target: T17, CSNK1G1 (Homo sapiens, UniProt Q9HCP0); details: 1 μM
T17 construct: purchased Ambit (KINOMEscan Max panel service)
In short: as §1

[18] = molecular target: ABL2 (Homo sapiens, UniProt P42684)
In short: as §1

[19] = molecular target: T18, PKN1 (Homo sapiens, UniProt Q16512)
T18 construct: DNA tag (qPCR read-out)
T18 sequence (Q16512 whole entry): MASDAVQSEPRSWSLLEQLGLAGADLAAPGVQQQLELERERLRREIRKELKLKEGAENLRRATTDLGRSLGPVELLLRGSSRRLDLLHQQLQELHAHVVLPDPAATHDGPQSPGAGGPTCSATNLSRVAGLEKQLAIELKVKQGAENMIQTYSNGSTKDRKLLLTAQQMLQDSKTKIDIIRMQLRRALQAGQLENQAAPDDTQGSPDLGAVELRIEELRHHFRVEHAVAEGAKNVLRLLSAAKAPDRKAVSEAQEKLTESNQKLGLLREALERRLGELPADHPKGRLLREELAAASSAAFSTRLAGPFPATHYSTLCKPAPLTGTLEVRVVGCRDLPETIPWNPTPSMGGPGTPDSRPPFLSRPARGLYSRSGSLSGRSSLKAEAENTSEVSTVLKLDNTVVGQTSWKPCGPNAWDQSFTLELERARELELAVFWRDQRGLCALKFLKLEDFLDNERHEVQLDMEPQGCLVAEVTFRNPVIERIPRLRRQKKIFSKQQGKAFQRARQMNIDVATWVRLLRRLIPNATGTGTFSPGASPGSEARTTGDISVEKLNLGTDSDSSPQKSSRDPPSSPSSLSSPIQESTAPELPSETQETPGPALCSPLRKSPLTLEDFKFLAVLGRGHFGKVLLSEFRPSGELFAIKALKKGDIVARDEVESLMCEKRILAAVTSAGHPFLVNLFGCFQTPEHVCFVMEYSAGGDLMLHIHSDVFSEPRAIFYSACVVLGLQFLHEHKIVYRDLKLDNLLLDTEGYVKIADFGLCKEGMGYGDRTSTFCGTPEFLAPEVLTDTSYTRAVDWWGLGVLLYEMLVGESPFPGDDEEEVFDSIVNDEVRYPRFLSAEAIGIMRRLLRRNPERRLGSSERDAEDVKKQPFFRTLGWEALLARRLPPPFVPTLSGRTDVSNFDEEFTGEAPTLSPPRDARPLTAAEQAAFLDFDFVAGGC
In short: as §1

[20] = molecular target: PIP5K1C (Homo sapiens, UniProt O60331); details: 1 μM
Sequence of PIP5K1C (O60331 whole entry): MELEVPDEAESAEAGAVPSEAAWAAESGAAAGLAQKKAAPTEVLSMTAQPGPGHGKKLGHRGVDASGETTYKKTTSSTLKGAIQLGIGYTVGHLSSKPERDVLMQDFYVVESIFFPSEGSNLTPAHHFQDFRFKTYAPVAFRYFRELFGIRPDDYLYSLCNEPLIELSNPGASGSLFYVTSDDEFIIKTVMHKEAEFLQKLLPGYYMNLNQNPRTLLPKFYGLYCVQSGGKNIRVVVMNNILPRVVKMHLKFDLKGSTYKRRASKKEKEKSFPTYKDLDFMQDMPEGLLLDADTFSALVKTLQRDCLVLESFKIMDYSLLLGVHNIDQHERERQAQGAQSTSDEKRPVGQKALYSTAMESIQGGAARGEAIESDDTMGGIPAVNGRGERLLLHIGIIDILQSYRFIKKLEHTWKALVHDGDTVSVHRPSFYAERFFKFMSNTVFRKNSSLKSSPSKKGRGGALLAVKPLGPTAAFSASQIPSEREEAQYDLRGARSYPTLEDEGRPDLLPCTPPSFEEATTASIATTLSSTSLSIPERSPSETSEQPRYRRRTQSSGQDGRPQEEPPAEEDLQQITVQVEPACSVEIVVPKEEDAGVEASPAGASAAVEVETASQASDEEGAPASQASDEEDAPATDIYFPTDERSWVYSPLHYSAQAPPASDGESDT
In short: as §1

[21] = molecular target: NEK6 (Homo sapiens, UniProt Q9HC98)
In short: as §1

[22] = molecular target: PRKCQ (Homo sapiens, UniProt Q04759)
Sequence of PRKCQ (Q04759 whole entry): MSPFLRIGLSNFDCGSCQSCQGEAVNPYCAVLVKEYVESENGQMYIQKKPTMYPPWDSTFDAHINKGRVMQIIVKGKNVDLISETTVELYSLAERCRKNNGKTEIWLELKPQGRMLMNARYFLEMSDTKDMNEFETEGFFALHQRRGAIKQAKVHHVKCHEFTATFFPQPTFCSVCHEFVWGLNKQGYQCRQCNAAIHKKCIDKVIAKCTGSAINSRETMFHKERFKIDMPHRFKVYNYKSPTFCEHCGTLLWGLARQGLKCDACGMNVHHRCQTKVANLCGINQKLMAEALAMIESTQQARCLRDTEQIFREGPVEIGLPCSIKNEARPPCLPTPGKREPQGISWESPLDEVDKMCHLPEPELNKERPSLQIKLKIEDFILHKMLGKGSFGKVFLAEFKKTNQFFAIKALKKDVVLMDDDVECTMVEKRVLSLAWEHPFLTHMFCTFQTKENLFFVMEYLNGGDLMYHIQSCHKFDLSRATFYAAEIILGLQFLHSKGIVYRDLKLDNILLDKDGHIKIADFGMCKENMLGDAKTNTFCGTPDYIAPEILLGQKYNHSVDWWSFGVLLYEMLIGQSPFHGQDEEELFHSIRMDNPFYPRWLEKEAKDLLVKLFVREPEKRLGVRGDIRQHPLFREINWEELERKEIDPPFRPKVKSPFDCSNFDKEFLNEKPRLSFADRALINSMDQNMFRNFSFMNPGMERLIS
In short: as §1

[23] = molecular target: MYO3A (Homo sapiens, UniProt Q8NEV4)
In short: as §1

[24] = molecular target: T19, HUNK (Homo sapiens, UniProt P57058)
T19 construct: purchased Ambit Kinomescan (contract panel, KINOMEscan Max)
In short: as §1

[25] = molecular target: T20, PIK3CA(H1047Y) (Homo sapiens, UniProt P42336, H1047Y)
T20 construct: DNA tag (qPCR read-out)
In short: as §1

[26] = molecular target: PHKG1 (Homo sapiens, UniProt Q16816)
Sequence of PHKG1 (Q16816 whole entry): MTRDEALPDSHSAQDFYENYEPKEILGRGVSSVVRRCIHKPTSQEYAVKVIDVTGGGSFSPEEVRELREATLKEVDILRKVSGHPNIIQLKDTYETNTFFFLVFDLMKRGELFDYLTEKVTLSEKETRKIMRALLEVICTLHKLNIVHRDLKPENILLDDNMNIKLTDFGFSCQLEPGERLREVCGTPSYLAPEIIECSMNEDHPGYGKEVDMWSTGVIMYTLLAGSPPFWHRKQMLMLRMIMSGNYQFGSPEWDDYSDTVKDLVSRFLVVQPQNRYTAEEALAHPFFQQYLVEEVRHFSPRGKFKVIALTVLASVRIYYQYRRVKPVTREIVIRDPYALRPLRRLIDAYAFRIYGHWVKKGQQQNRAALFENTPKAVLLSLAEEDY
In short: as §1

[27] = molecular target: T21, TYK2(JH1domain-catalytic) (Homo sapiens, UniProt P29597); details: 1 μM
T21 construct: TYK2(JH1domain-catalytic); purchased Ambit Kinomescan (contract screening service)
In short: as §1

[28] = molecular target: T22, CSNK1E (Homo sapiens, UniProt P49674)
T22 construct: DNA tag (qPCR read-out)
In short: as §1

[29] = molecular target: T23, PDGFRA (Homo sapiens, UniProt P16234)
T23 construct: DNA tag (qPCR read-out)
T23 sequence (P16234 24-1089): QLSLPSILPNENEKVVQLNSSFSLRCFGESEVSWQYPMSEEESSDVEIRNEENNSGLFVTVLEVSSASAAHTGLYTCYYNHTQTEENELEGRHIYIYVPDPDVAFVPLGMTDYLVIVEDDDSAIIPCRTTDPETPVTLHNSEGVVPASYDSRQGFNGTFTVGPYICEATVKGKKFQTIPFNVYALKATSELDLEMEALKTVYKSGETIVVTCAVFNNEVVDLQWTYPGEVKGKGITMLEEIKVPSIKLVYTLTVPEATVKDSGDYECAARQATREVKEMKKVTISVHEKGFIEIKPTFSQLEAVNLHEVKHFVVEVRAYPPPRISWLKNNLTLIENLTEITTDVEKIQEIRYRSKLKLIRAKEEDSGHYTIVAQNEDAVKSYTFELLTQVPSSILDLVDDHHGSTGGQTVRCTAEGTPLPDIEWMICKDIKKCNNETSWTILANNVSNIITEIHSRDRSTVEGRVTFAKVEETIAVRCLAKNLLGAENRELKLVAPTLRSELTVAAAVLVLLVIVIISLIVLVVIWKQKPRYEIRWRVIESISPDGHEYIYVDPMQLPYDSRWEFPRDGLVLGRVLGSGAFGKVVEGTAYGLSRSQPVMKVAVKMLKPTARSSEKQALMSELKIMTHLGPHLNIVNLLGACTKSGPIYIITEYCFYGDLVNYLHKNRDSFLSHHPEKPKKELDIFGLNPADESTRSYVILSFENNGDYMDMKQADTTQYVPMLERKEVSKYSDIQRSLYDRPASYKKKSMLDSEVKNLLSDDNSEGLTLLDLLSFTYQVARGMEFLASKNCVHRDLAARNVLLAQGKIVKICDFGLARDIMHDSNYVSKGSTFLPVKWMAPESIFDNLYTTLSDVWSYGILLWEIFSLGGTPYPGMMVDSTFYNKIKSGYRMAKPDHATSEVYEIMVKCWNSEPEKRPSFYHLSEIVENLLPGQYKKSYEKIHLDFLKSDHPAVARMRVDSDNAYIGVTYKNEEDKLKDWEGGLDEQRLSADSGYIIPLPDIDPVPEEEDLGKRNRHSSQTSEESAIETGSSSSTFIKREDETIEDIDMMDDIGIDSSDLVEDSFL
In short: as §1

[30] = molecular target: ABL1(F317I)-phosphorylated (Homo sapiens, UniProt P00519, F317I)
In short: as §1

[31] = molecular target: T24, KIT(A829P) (Homo sapiens, UniProt P10721, A829P)
T24 construct: purchased Ambit Kinomescan (contract panel)
In short: as §1

[32] = molecular target: PIP5K1A (Homo sapiens, UniProt Q99755)
In short: as §1

[33] = molecular target: T25, LIMK2 (Homo sapiens, UniProt P53671)
T25 construct: purchased Ambit Kinomescan (contract screening)
In short: as §1

Compound `NCCCNc1nc2c(Br)c(Br)c(Br)c(Br)c2[nH]1` [Compound 11, N-(3-aminopropyl)-4,5,6,7-tetrabromo-1H-benzo[d]imidazol-2-amine] has a remaining binding at 1 µM [1] of 96%, a remaining binding at 1 µM [2] of 97% and a remaining binding at 1 µM [3] of 100%. For the same compound, the remaining binding at 1 µM [4] was 84%, the remaining binding at 1 µM [5] was 100% and the remaining binding at 1 µM [6] was 58%. For the same compound, the remaining binding at 1 µM [7] was 100%, the remaining binding at 1 µM [8] was 24% and the remaining binding at 1 µM [9] was 86%. For the same compound, the remaining binding at 1 µM [10] was 67%, the remaining binding at 1 µM [11] was 89% and the remaining binding at 1 µM [12] was 100%. For the same compound, the remaining binding at 1 µM [13] was 70%, the remaining binding at 1 µM [14] was 100% and the remaining binding at 1 µM [15] was 100%. For the same compound, the remaining binding at 1 µM [16] was 100%, the “% binding” value [17] was 100% and the remaining binding at 1 µM [18] was 100%. The remaining binding at 1 µM [19] was 100%, the “% binding” value [20] was 95% and the remaining binding at 1 µM [21] was 100%. It also gave a remaining binding at 1 µM [22] of 77%, a remaining binding at 1 µM [23] of 100% and a remaining binding at 1 µM [24] of 100%. The remaining binding at 1 µM [25] was 100%, the remaining binding at 1 µM [26] was 94% and the “% binding” value [27] was 100%. The remaining binding at 1 µM [28] was 34%, the remaining binding at 1 µM [29] was 100% and the remaining binding at 1 µM [30] was 100%. The remaining binding at 1 µM [31] was 100%, the remaining binding at 1 µM [32] was 75% and the remaining binding at 1 µM [33] was 96%.
